Values joined by “and” are separate entries in the source; they are usually repeats but may differ in a detail not shown here. Identical values can stand only once.
Columns and labels:
[1] = xn = mol fraction of the nth substance listed; conditions: 298 K, 101 kPa

CC(C)Cc1ccccc1
viscosity [mPa·s]
Conditions	293.15 K	303.15 K	313.15 K	323.15 K
101 kPa	–	0.899	0.771	–
102 kPa	1.02	0.883	0.769	0.68

CC=CC(=O)OCC
101 kPa
Conditions	viscosity [mPa·s]
293.15 K	0.8184
298.15 K	0.7576
303.15 K	0.7053
313.15 K	0.6154
323.15 K	0.5471

CCC(C)CC
101.33 kPa
Conditions	viscosity [mPa·s]
298 K	0.288
298.15 K	0.2909

CCCC[N+]1(C)CCCC1.O=S(=O)([N-]S(=O)(=O)C(F)(F)F)C(F)(F)F
viscosity
Conditions	293.15 K	295.2 K	298.15 K	303.15 K	308.15 K	313.15 K	318.15 K
100 kPa	97.99 mPa·s and 90.17 mPa·s	–	74.9 mPa·s and 70.12 mPa·s	61.58 mPa·s and 56.19 mPa·s	50.81 mPa·s and 45.8 mPa·s	37.99 mPa·s	34.58 mPa·s
101 kPa	86.03 mPa·s and 86.05 mPa·s	–	68.14 mPa·s and 68.16 mPa·s and 70.5 mPa·s	54.03 mPa·s and 54.05 mPa·s	44.37 mPa·s and 44.38 mPa·s	42 mPa·s and 35.75 mPa·s and 35.76 mPa·s	29.71 mPa·s and 29.72 mPa·s
101.3 kPa	–	80 mPa·s	–	–	–	–	–

CCC[NH3+].O=[N+]([O-])[O-]
Conditions	viscosity [mPa·s]
298 K, 101 kPa	72.61

CC[n+]1ccccc1.O=S(=O)([O-])C(F)(F)F
101 kPa
Conditions	viscosity [mPa·s]
293.15 K	75.2
298.15 K	60.58
303.15 K	48.77
313.15 K	33.78
323.15 K	24.47

CN(c1ccccc1)c1ccccc1
101 kPa
Conditions	viscosity
293.15 K	7.25 mPa·s
293.25 K	7.22 mPa·s
303.15 K	5.13 mPa·s
313.15 K	3.84 mPa·s and 3.835 mPa·s

Cc1cc(C)cc(C)c1
Conditions	viscosity
293.15 K, 101 kPa	0.692 mPa·s and 0.721 mPa·s
293.15 K, 101.33 kPa	0.692 mPa·s
293.15 K, 102 kPa	0.699 mPa·s
295.01 K, 101.33 kPa	0.6861 mPa·s
298.15 K, 101 kPa	0.6025 mPa·s and 0.6518 mPa·s
298.15 K, 101.3 kPa	0.656 mPa·s and 0.671 mPa·s
298.15 K, 101.33 kPa	0.6 mPa·s and 0.658 mPa·s
298.38 K, 100 kPa	0.6595 mPa·s
298.38 K, 101.33 kPa	0.6595 mPa·s
302.82 K, 101.33 kPa	0.6227 mPa·s
303 K, 101 kPa	0.6123 mPa·s and 0.6124 mPa·s
303.15 K, 101 kPa	0.633 mPa·s and 0.612 mPa·s
303.15 K, 101.3 kPa	0.616 mPa·s and 0.624 mPa·s
303.15 K, 101.33 kPa	0.564 mPa·s
303.15 K, 102 kPa	0.606 mPa·s
307.35 K, 101.33 kPa	0.584 mPa·s
307.4 K, 101.33 kPa	0.309 mPa·s
307.78 K, 101.33 kPa	0.5879 mPa·s
308.15 K, 101.3 kPa	0.581 mPa·s and 0.589 mPa·s
308.15 K, 101.33 kPa	0.5482 mPa·s and 0.585 mPa·s
308.5 K, 101 kPa	0.597 mPa·s
312.69 K, 100 kPa	0.5561 mPa·s
312.69 K, 101.33 kPa	0.5561 mPa·s
313 K, 101 kPa	0.5482 mPa·s and 0.5481 mPa·s
313.15 K, 102 kPa	0.534 mPa·s
317.53 K, 101.33 kPa	0.5269 mPa·s
318.15 K, 101 kPa	0.3678 mPa·s and 0.52 mPa·s
322.26 K, 101.33 kPa	0.5017 mPa·s
323 K, 101 kPa	0.491 mPa·s and 0.4898 mPa·s
323.15 K, 101 kPa	0.495 mPa·s
323.15 K, 102 kPa	0.476 mPa·s

OCCCCO
viscosity
Conditions	293.15 K	298.15 K	303.15 K	308.15 K	313.15 K	318.15 K	323.15 K
101 kPa	96.5 mPa·s and 96.8 mPa·s	72.8 mPa·s and 72.1 mPa·s and 75.6 mPa·s	54.3 mPa·s and 57.2 mPa·s and 50.53 mPa·s	–	32.8 mPa·s and 35.4 mPa·s and 37.03 mPa·s	–	–
101.3 kPa	92.14 mPa·s	71.91 mPa·s	–	45.04 mPa·s	36.26 mPa·s	29.38 mPa·s	24.18 mPa·s
101.33 kPa	91.27 mPa·s	72.83 mPa·s	56.05 mPa·s	45.06 mPa·s	36.02 mPa·s	30.61 mPa·s	–

[Cl-].[Cl-].[Cl-].[Cl-].[Sn+4]
101 kPa
Conditions	viscosity
293.15 K	0.951 mPa·s and 0.927 mPa·s
298.15 K	0.919 mPa·s and 0.8145 mPa·s
313.15 K	0.715 mPa·s and 0.758 mPa·s
323.15 K	0.668 mPa·s and 0.683 mPa·s and 0.683 mPa·s

CCC[NH3+].O=[N+]([O-])[O-] + O
[1]
Conditions	viscosity [mPa·s]
x2 = 0.1	50.56
x2 = 0.198	34.71
x2 = 0.294	24.59
x2 = 0.397	16.65
x2 = 0.494	11.43
x2 = 0.596	7.63
x2 = 0.696	5.02
x2 = 0.797	3.19
x2 = 0.9	1.86
x2 = 0.95	1.35

Reference: the CheMixHub viscosity set
